Laboratory results published in US8338565B2, “Macrocyclic compounds for inhibition of tumor necrosis factor alpha” (Ensemble Therapeutics Corporation, priority 2008, dated 2012).
Where two headings read alike, the source gives them in different places. Numbered stars: 1 amine (or outer) side, 2 acyl side, 3 side chain; on linkers, the order of the positions; unused ones are H or OH. Bridge positions count the residues as written; N and C are the ends. Square brackets hold non-standard residues; d marks the D form. Peptide text beside a SMILES is read from it. * marks the point of attachment. Tartaroyl(2R,3R-(OAc)2) = CC(=O)O[C@@H](C(=O)[*:1])[C@@H](OC(C)=O)C(=O)[*:2]; Gly(N-(4-CH2NH-benzyl)) = O=C(CN(Cc1ccc(CN[*:3])cc1)[*:1])[*:2]; Phe(4-CF3) = N[C@@H](Cc1ccc(C(F)(F)F)cc1)C(=O)O; Phe(2,4-Cl2) = N[C@@H](Cc1ccc(Cl)cc1Cl)C(=O)O; dPhe(3-OMe) = COc1cccc(C[C@@H](N)C(=O)O)c1; Bip = N[C@@H](Cc1ccc(-c2ccccc2)cc1)C(=O)O; dBip = N[C@H](Cc1ccc(-c2ccccc2)cc1)C(=O)O; dPhe(4-NH2) = Nc1ccc(C[C@@H](N)C(=O)O)cc1; Nip(3R) = O=C([C@@H]1CCCN([*:1])C1)[*:2]; Phe(4-Br) = N[C@@H](Cc1ccc(Br)cc1)C(=O)O; Phe(4-NH2) = Nc1ccc(C[C@H](N)C(=O)O)cc1; 2Nal = N[C@@H](Cc1ccc2ccccc2c1)C(=O)O; d(hhPhe) = N[C@H](CCCc1ccccc1)C(=O)O; d(β3hF) = N[C@@H](CC(=O)O)Cc1ccccc1; d(hPhe) = N[C@H](CCc1ccccc1)C(=O)O; d4Pal = N[C@H](Cc1ccncc1)C(=O)O; 2Thi = N[C@@H](Cc1cccs1)C(=O)O; d2Thi = N[C@H](Cc1cccs1)C(=O)O; dCha = N[C@H](CC1CCCCC1)C(=O)O; Suc = O=C(CCC(=O)[*:2])[*:1]; NHCH2SO3H = O=S(=O)(O)CN*; Aib = CC(C)(N)C(=O)O

Molecular target: T1, TNFα / TNFα receptor (TNFα R1/Fc) (Homo sapiens, UniProt P01375)
T1 construct: purchased R&D Systems
T1 sequence (P01375 77-233 limits assumed, species assumed): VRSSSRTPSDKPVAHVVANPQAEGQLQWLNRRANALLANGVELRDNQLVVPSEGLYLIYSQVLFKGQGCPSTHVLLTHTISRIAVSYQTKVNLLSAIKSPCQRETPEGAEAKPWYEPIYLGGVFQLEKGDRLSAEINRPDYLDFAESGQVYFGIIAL
Assay: Inhibition of binding of TNFα to the TNFα receptor (plate ELISA competition)
Details: Table 2
Procedure, shortened: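 Plates were coated with TNFα at 15 nM. Test compound and 8.33 nM receptor-Fc (PBST, 2% DMSO) were first mixed in solution for 30 min at room temperature, then transferred to the plates for another 30 min. Competition was read by absorbance at 450 nm after HRP anti-human IgG Fc detection with TMB.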

[1] = read-out: Activity (IC50, inhibition of TNFα binding to TNFα R1/Fc)
[2] = Activity (IC50, inhibition of TNFα binding to TNFα R1/Fc)

Row | Structure (SMILES) | IC50 [1] [µM] | IC50 [2] [µM]
1 | COc1ccc(C[C@@H]2NC(=O)[C@@H](Cc3ccc(-c4ccccc4)cc3)NC(=O)[C@H](Cc3ccncc3)NC(=O)COc3ccc(cc3)C[C@@H](C(=O)O)NC2=O)cc1 [Compound 639] | < 10 | –
2 | O=C1CCC(=O)N[C@H](CC2CCCCC2)C(=O)N[C@@H](Cc2ccc(-c3ccccc3)cc2)C(=O)N[C@H](Cc2ccccc2)C(=O)N[C@H](C(=O)O)Cc2ccc(cc2)N1 [Compound 124] ([dCha][Bip][dF][Phe(4-NH2)]-OH; linker N-4 via Suc) | > 100 | –
3 | O=C1COc2ccc(cc2)C[C@@H](C(=O)O)NC(=O)[C@H](Cc2ccccc2)NC(=O)[C@H](Cc2ccc(-c3ccccc3)cc2)NC(=O)[C@H](Cc2ccc(OCc3ccccc3)cc2)N1 [Compound 491] | > 100 | –
4 | COc1cccc(C[C@@H]2NC(=O)[C@@H](Cc3ccc(-c4ccccc4)cc3)NC(=O)[C@H](Cc3ccncc3)NC(=O)COc3ccc(cc3)C[C@@H](C(=O)O)NC2=O)c1 [Compound 638] | < 10 | –
5 | O=C(O)CN1Cc2ccc(cc2)CNC(=O)CCC(=O)N[C@H](Cc2cccs2)C(=O)N[C@@H](Cc2ccc(-c3ccccc3)cc2)C(=O)N[C@H](Cc2ccccc2)C1=O [Compound 186] ([d2Thi][Bip][dF][Gly(N-(4-CH2NH-benzyl))]-OH; linker N-4 via Suc) | 30 to 100 | –
6 | O=C1N[C@H](Cc2ccccc2)C(=O)N[C@@H](C(=O)O)Cc2ccc(cc2)NC(=O)[C@H](O)[C@@H](O)C(=O)N[C@H](Cc2cccs2)C(=O)N[C@H]1Cc1ccc(Cl)cc1Cl [Compound 244] | 30 to 100 | –
7 | COc1cccc(C[C@H]2NC(=O)CCC(=O)Nc3ccc(cc3)C[C@@H](C(=O)O)NC(=O)[C@@H](Cc3ccccc3)NC(=O)[C@H](Cc3ccc(C(F)(F)F)cc3)NC2=O)c1 [Compound 138] ([dPhe(3-OMe)][Phe(4-CF3)][dF][Phe(4-NH2)]-OH; linker N-4 via Suc) | > 100 | –
8 | CC(C)(NC(=O)[C@H]1Cc2ccc(cc2)NC(=O)CCC(=O)N[C@H](CCc2ccccc2)C(=O)N[C@@H](Cc2ccc(C(F)(F)F)cc2)C(=O)N[C@H](Cc2ccccc2)C(=O)N1)C(=O)O [Compound 14] ([d(hPhe)][Phe(4-CF3)][dF][dPhe(4-NH2)][Aib]-OH; linker N-4 via Suc) | 30 to 100 | –
9 | O=C1COc2ccc(cc2)C[C@@H](C(=O)O)NC(=O)[C@H](CCc2ccccc2)NC(=O)[C@@H](Cc2ccc(-c3ccncc3)cc2)NC(=O)[C@H](Cc2ccccn2)N1 [Compound 661] | 30 to 100 | –
10 | O=C1COc2ccc(cc2)C[C@@H](C(=O)O)NC(=O)[C@H](Cc2ccccc2)NC(=O)[C@@H](Cc2ccc(-c3ccccc3)cc2)NC(=O)[C@H](Cc2ccncc2)N1 [Compound 646] | < 10 | –
11 | O=C1CCC(=O)N[C@H](CCc2ccccc2)C(=O)N[C@@H](Cc2ccc(-c3ccccc3)cc2)C(=O)N[C@H](Cc2ccccc2)C(=O)N[C@H](C(=O)N[C@@H](Cc2ccccc2)C(=O)NCS(=O)(=O)O)Cc2ccc(cc2)N1 [Compound 542] ([d(hPhe)][Bip][dF][Phe(4-NH2)]F-NHCH2SO3H; linker N-4 via Suc) | < 10 | –
12 | O=C1COc2ccc(cc2)C[C@H](C(=O)N[C@H](CCc2ccccc2)C(=O)O)NC(=O)[C@H](CCc2ccccc2)NC(=O)[C@@H](Cc2ccc(-c3ccccc3)cc2)NC(=O)[C@H](Cc2ccncc2)N1 [Compound 738] | < 10 | –
13 | O=C1CCC(=O)N[C@H](Cc2ccncc2)C(=O)N[C@@H](Cc2ccc(-c3ccccc3)cc2)C(=O)N[C@H](Cc2ccccc2)C(=O)N[C@H](C(=O)O)Cc2ccc(cc2)N1 [Compound 127] ([d4Pal][Bip][dF][Phe(4-NH2)]-OH; linker N-4 via Suc) | > 100 | –
14 | C[C@H](NC(=O)[C@@H]1Cc2ccc(cc2)NC(=O)CCC(=O)N[C@H](Cc2cccs2)C(=O)N[C@@H](Cc2ccc(-c3ccccc3)cc2)C(=O)N[C@H](CCc2ccccc2)C(=O)N1)C(=O)O [Compound 447] ([d2Thi][Bip][d(hPhe)][Phe(4-NH2)]A-OH; linker N-4 via Suc) | > 100 | –
15 | O=C1COc2ccc(cc2)C[C@@H](C(=O)N[C@H](Cc2ccccc2)C(=O)O)NC(=O)[C@H](Cc2cccs2)NC(=O)[C@@H](Cc2ccc(-c3ccccc3)cc2)NC(=O)[C@H](Cc2cccs2)N1 [Compound 588] | – | < 10
16 | O=C(O)[C@@H]1Cc2ccc(cc2)NC(=O)[C@H](O)[C@@H](O)C(=O)N[C@H](Cc2cccs2)C(=O)N[C@@H](Cc2ccc(-c3ccccc3)cc2)C(=O)N[C@H](Cc2ccc(Cl)cc2Cl)C(=O)N1 [Compound 287] | 10 to 30 | –
17 | CC(=O)O[C@H]1C(=O)Nc2ccc(cc2)C[C@H](C(=O)N[C@@H](Cc2ccccc2)C(=O)O)NC(=O)[C@H](Cc2ccccc2)NC(=O)[C@@H](Cc2ccc(-c3ccccc3)cc2)NC(=O)[C@H](Cc2cccs2)NC(=O)[C@@H]1OC(C)=O [Compound 413] ([2Thi][dBip]F[dPhe(4-NH2)]F-OH; linker N-4 via Tartaroyl(2R,3R-(OAc)2)) | > 100 | –
18 | O=C1N[C@H](Cc2ccccc2)C(=O)N[C@@H](C(=O)O)Cc2ccc(cc2)NC(=O)[C@H](O)[C@@H](O)C(=O)N[C@H](Cc2ccccc2)C(=O)N[C@H]1Cc1ccc(-c2ccccc2)cc1 [Compound 241] | 30 to 100 | –

Row | Structure (SMILES) | IC50 [1] [µM] | IC50 [2] [µM]
19 | O=C1COc2ccc(cc2)C[C@@H](C(=O)N[C@@H](Cc2ccccc2)C(=O)O)NC(=O)[C@H](CCc2ccccc2)NC(=O)[C@@H](Cc2ccc(-c3ccccc3)cc2)NC(=O)[C@H](Cc2cccs2)N1 [Compound 481] | – | < 10
20 | N[C@@H]1CC(=O)N[C@H](Cc2cccs2)C(=O)N[C@@H](Cc2ccc(-c3ccccc3)cc2)C(=O)N[C@H](Cc2ccccc2)C(=O)N[C@H](C(=O)O)Cc2ccc(cc2)NC1=O [Compound 374] | > 100 | –
21 | O=C1COc2ccc(cc2)C[C@@H](C(=O)O)NC(=O)[C@H](Cc2ccc(-c3ccccc3)cc2)NC(=O)[C@@H](Cc2ccc(-c3ccccc3)cc2)NC(=O)[C@H](CCc2ccccc2)N1 [Compound 725] | < 10 | –
22 | N#Cc1ccccc1C[C@H]1NC(=O)[C@H](Cc2ccc(-c3ccccc3)cc2)NC(=O)[C@@H](Cc2cccs2)NC(=O)[C@H](O)[C@@H](O)C(=O)Nc2ccc(cc2)C[C@@H](C(=O)O)NC1=O [Compound 285] | 30 to 100 | –
23 | O=C1COc2ccc(cc2)C[C@@H](C(=O)O)NC(=O)[C@H](c2ccccc2)NC(=O)[C@@H](Cc2ccc(-c3ccccc3)cc2)NC(=O)[C@H](Cc2cccs2)N1 [Compound 368] | > 100 | –
24 | O=C1COc2ccc(cc2)C[C@@H](C(=O)O)NC(=O)[C@H](CCc2ccccc2)NC(=O)[C@@H](Cc2ccc(-c3ccccc3)cc2)NC(=O)[C@H](Cc2cn(-c3ccccc3)nn2)N1 [Compound 693] | < 10 | –
25 | O=C1COc2ccc(cc2)C[C@@H](C(=O)O)NC(=O)[C@@H](CCc2ccccc2)NC(=O)[C@H](Cc2ccc(-c3ccccc3)cc2)NC(=O)[C@@H](Cc2ccc(O)cc2)N1 [Compound 521] | > 100 | –
26 | O=C1CCC(=O)N[C@H](CCc2ccccc2)C(=O)N[C@@H](Cc2ccc(C(F)(F)F)cc2)C(=O)N[C@H](Cc2ccccc2)C(=O)Nc2ccc(cc2)C[C@@H](C(=O)O)N1 [Compound 552] | 10 to 30 | –
27 | CC(=O)O[C@H]1C(=O)Nc2ccc(cc2)C[C@H](C(=O)O)NC(=O)[C@@H](Cc2ccccc2)NC(=O)[C@H](Cc2ccc(Cl)cc2Cl)NC(=O)[C@@H](Cc2cccs2)NC(=O)[C@@H]1OC(C)=O [Compound 234] ([d2Thi][Phe(2,4-Cl2)][dF][dPhe(4-NH2)]-OH; linker N-4 via Tartaroyl(2R,3R-(OAc)2)) | > 100 | –
28 | O=C1CCC(=O)N[C@H](CCc2ccccc2)C(=O)N[C@@H](Cc2ccc(Br)cc2)C(=O)N[C@H](Cc2ccccc2)C(=O)N[C@@H](C(=O)N[C@@H](Cc2ccccc2)C(=O)O)Cc2ccc(cc2)N1 [Compound 440] ([d(hPhe)][Phe(4-Br)][dF][dPhe(4-NH2)]F-OH; linker N-4 via Suc) | 10 to 30 | –
29 | O=C1CCC(=O)N[C@H](Cc2cccs2)C(=O)N[C@@H](Cc2ccc(-c3ccccc3)cc2)C(=O)N[C@H](Cc2ccccc2)CC(=O)N[C@H](C(=O)O)Cc2ccc(cc2)N1 [Compound 56] ([d2Thi][Bip][d(β3hF)][Phe(4-NH2)]-OH; linker N-4 via Suc) | > 100 | –
30 | O=C1CCC(=O)N[C@H](CCCc2ccccc2)C(=O)N[C@@H](Cc2ccc(C(F)(F)F)cc2)C(=O)N[C@H](Cc2ccccc2)C(=O)N[C@H](C(=O)O)Cc2ccc(cc2)N1 [Compound 136] ([d(hhPhe)][Phe(4-CF3)][dF][Phe(4-NH2)]-OH; linker N-4 via Suc) | 30 to 100 | –
31 | O=C(O)CCNC(=O)[C@@H]1Cc2ccc(cc2)OCC(=O)N[C@@H](Cc2ccncc2)C(=O)N[C@H](Cc2ccc(-c3ccccc3)cc2)C(=O)N[C@@H](CCc2ccccc2)C(=O)N1 [Compound 559] | < 10 | –
32 | O=C1CCC(=O)N[C@H](Cc2cccs2)C(=O)N[C@@H](Cc2ccc(-c3ccccc3)cc2)C(=O)N[C@H](CCc2ccccc2)C(=O)N[C@H](C(=O)O)Cc2ccc(cn2)N1 [Compound 547] | < 10 | –
33 | O=C1COc2ccc(cc2)C[C@@H](C(=O)O)NC(=O)[C@H](Cc2ccccc2)NC(=O)[C@H](Cc2ccc(-c3ccc(C(=O)O)cc3)cc2)NC(=O)[C@H](Cc2cccs2)N1 [Compound 361] | > 100 | –
34 | O=C1CCC(=O)N[C@H](CCc2ccccc2)C(=O)N[C@@H](Cc2ccc3ccccc3c2)C(=O)N[C@H](Cc2ccccc2)C(=O)N[C@H](C(=O)O)Cc2ccc(cc2)N1 [Compound 109] ([d(hPhe)][2Nal][dF][Phe(4-NH2)]-OH; linker N-4 via Suc) | 10 to 30 | –
35 | O=C1CCC(=O)N[C@H](Cc2cccs2)C(=O)N[C@@H](Cc2ccc(-c3ccccc3)cc2)C(=O)N[C@H](Cc2ccccc2)C(=O)N[C@H](C(=O)N2CCC[C@@H](C(=O)O)C2)Cc2ccc(cc2)N1 [Compound 38] ([d2Thi][Bip][dF][Phe(4-NH2)]-{Nip(3R)}; linker N-4 via Suc) | 30 to 100 | –
36 | CC(C)(NC(=O)[C@@H]1Cc2ccc(cc2)OCC(=O)N[C@@H](Cc2cccs2)C(=O)N[C@H](Cc2ccc(-c3ccccc3)cc2)C(=O)N[C@@H](CCc2ccccc2)C(=O)N1)C(=O)O [Compound 477] | < 10 | –
